ChEMBL document CHEMBL1201862, “PubChem BioAssay data set” (2004)
Several values for one entry are separate records, joined by “and”; a condition that tells them apart may be missing. Equal entries are not always repeated. Activity calls are given as the source filed them.

Assays:
[1] = biological target: T1, Ubiquitin-conjugating enzyme E2 N (Homo sapiens, UniProt P61088); type: functional;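 also: Dose-response confirmation in a TR-FRET assay detecting UBC13-driven polyubiquitin chain formation, inhibition measured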
T1 sequence (P61088 whole entry): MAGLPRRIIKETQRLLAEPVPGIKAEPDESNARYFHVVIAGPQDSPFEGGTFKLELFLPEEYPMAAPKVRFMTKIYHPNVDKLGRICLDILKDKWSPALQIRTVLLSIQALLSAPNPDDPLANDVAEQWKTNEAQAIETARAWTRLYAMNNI

[2] = growth suppression of PTEN-null colon cells, dose response, cell-based, HCT116 PTEN knockout (AID 1047); type: functional;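 also: HCT116 colon tumor cells with PTEN knocked out; cells exposed to compound for 60 hours before readout; potency for loss of cell viability measured by luminescence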
[3] = growth suppression of beta-catenin-knockout colon cells, dose response, cell-based, HCT116, human colon tumor (AID 1045); type: functional;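 also: HCT116 colon tumor cells with beta catenin knocked out; cells exposed to compound for 60 hours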
[4] = biological target: T2, Corticotropin-releasing factor receptor 2/Corticotropin-releasing factor-binding protein (Homo sapiens, UniProt P24387+Q13324); assay: Dose Response confirmation of uHTS hits for small molecule antagonists of the CRF-binding protein and CRF-R2 receptor complex.; type: functional; conditions: read-out: IC50_Mean
T2 sequence (Q13324 whole entry): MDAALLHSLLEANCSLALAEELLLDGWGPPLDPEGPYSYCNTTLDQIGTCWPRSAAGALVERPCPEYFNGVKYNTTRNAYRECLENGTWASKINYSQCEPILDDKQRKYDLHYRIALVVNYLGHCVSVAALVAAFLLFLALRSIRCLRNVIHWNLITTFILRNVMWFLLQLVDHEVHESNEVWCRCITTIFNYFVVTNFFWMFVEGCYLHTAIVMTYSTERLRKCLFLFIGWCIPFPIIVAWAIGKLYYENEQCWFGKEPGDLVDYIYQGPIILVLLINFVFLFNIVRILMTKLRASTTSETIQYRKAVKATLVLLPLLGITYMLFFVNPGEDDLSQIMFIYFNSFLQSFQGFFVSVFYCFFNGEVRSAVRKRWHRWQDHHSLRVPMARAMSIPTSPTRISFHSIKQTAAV
T2 sequence (P24387 whole entry): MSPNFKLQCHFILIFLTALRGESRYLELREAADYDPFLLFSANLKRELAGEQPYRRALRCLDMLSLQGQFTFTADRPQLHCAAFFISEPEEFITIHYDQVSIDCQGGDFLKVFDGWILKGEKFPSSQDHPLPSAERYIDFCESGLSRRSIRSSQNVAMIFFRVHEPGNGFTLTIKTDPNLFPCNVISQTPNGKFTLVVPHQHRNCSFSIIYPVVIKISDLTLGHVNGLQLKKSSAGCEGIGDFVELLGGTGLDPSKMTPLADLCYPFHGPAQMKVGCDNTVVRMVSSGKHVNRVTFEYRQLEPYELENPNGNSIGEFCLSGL

[5] = biological target: T2, Corticotropin-releasing factor receptor 2/Corticotropin-releasing factor-binding protein; assay: activators of CRF receptor 2 with binding protein – uHTS hits, confirmation (AID 602473); type: functional; conditions: read-out: EC50_Mean
[6] = biological target: T3, Rac GTPase-activating protein 1 (Homo sapiens, UniProt Q9H0H5); assay: MgcRacGAP GTPase-activating activity inhibitors, confirmation, biochemical, ADP Hunter fluorescence, primary and confirmatory (AID 624330); type: functional
T3 sequence (Q9H0H5 whole entry): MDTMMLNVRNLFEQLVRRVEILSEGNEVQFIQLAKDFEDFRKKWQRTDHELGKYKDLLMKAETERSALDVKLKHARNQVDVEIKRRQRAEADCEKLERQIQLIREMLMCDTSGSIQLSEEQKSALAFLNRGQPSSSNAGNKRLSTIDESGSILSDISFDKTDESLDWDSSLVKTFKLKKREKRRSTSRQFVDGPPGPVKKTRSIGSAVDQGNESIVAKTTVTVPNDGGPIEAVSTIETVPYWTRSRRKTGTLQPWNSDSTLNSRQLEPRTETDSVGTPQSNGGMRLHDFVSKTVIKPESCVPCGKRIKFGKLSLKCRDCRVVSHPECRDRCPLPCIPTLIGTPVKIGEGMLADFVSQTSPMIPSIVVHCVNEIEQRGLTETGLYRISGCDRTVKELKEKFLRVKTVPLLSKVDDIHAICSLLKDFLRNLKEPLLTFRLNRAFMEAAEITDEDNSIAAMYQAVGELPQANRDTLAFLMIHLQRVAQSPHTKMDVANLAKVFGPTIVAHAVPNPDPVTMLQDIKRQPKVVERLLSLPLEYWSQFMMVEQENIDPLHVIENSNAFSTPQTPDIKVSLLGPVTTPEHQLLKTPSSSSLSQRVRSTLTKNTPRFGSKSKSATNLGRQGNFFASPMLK

[7] = biological target: FAD-linked sulfhydryl oxidase ALR (Homo sapiens, UniProt P55789); assay: inhibitors of human ALR sulfhydryl oxidase, dose response, biochemical, H2O2 detection, luminescence, cherry-pick (AID 493248)
[8] = Shn3 3'UTR reporter inhibitors, dose response, cell-based, Clone20 osteoblasts, firefly luciferase, cherry-picked (AID 624132); type: functional;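 also: firefly luciferase luminescence from reporter carrying the Shn3 3'UTR in osteoblasts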
Large T antigen = Large T antigen (Simian virus 40, UniProt P03070); type: functional, Betapolyomavirus macacae;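 also: Confirmatory-stage PubChem screen for compounds that inhibit SV40 T antigen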
[9] = biological target: T4, Heat shock factor protein 1 (Mus musculus, UniProt P38532); assay: HSF1 potentiators in luciferase reporter cells, confirmation, cell-based, NIH3T3, luminescence, dose retest (AID 435004); type: functional;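 also: stress induced by proteasome inhibitor MG132 added 30 min after compound; luciferase reporter driven by HSF1 response element in NIH3T3 cells; actives raise luminescence as potentiators of the MG132 stress response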
T4 sequence (P38532 whole entry): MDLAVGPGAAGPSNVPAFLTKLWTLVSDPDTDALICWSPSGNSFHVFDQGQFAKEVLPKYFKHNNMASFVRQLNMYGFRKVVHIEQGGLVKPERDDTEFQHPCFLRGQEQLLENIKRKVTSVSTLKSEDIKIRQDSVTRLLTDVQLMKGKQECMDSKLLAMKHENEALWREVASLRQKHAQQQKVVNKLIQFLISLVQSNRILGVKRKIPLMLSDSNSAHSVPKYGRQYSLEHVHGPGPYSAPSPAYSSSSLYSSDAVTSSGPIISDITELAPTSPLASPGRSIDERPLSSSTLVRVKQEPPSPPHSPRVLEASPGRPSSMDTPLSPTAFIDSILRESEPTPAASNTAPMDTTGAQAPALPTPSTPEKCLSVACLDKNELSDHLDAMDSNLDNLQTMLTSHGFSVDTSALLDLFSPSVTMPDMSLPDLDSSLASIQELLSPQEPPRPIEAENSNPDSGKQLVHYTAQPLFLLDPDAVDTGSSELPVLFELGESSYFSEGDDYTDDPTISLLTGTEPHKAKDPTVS

Streptokinase A = biological target: T5, Streptokinase A (Streptococcus pyogenes serotype M1, UniProt P10520); assay: S. pyogenes streptokinase expression inhibitors, potency, dose response, plasminogen activation absorbance, OD405 (AID 1914); type: functional, Streptococcus pyogenes M1 GAS;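 also: secreted streptokinase activity via plasminogen activation per viability signal from cell pellet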
T5 sequence (P10520 whole entry): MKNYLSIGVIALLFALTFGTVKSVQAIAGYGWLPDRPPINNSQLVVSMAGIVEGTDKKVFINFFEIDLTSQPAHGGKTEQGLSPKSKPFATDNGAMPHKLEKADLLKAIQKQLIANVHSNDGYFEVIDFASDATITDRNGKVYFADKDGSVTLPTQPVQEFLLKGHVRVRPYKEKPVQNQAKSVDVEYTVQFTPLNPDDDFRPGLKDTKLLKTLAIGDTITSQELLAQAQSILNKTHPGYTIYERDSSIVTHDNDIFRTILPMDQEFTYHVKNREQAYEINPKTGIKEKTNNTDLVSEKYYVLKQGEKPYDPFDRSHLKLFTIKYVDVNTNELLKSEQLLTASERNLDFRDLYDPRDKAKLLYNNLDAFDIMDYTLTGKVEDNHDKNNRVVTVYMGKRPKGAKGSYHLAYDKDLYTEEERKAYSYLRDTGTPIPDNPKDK

Large T antigen, sequence (P03070 whole entry): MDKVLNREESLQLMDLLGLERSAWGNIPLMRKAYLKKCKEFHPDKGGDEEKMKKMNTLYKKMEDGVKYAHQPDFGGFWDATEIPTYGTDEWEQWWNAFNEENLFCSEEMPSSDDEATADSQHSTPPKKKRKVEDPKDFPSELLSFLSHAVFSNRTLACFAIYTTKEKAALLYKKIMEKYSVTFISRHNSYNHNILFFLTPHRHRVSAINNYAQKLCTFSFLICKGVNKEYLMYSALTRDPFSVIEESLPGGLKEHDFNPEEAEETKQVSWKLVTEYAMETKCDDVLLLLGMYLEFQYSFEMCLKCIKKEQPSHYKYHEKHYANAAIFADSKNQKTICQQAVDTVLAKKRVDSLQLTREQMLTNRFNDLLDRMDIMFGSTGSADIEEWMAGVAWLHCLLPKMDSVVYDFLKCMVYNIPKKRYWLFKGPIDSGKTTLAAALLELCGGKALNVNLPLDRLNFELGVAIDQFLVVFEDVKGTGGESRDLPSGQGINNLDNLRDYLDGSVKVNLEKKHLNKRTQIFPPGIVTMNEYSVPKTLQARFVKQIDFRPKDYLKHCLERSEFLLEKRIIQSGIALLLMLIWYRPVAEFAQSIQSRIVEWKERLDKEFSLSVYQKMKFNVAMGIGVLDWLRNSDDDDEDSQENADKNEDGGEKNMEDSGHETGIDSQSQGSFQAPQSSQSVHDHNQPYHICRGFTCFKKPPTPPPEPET
FAD-linked sulfhydryl oxidase ALR, sequence (P55789 whole entry): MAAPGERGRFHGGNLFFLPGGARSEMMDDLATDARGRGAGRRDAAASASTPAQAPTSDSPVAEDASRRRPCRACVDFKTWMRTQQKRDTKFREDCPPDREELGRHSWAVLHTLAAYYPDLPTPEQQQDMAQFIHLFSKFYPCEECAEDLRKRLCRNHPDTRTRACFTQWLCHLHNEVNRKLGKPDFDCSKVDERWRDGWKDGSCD

With `Cc1ccc(S(=O)(=O)N2CCCC(C(=O)NNCC(=O)Nc3cc(F)ccc3F)C2)cc1` (stereo unspecified) the IC50 [1] was > 20 µM (inactive).

With `O=C(NCCCn1ccnc1)c1nn2c(C(F)(F)F)cc(-c3ccc(Br)cc3)nc2c1Cl` the EC50 [2] was 16.8 µM (active) and the EC50 [3] was 33.2 µM (active).

For `N#C/C(=C\c1cccn1-c1ccccc1)C(=O)NC1CCCCC1`, the IC50 [4] was > 47.1 µM (inactive) and the EC50 [5] was > 53 µM (inactive).

In the case of `Cc1ccc[n+](CC(=O)Nc2ccc(N(C)C)cc2)c1`, the IC50 [6] is reported as 113 µM (active) and the AC50 [7] is reported as 2.2 µM (active).

For `Cc1c(OCC(=O)NCCN2CCOCC2)ccc2c3c(c(=O)oc12)CCC3`, the IC50 [4] was > 47.1 µM (inactive) and the EC50 [5] was > 53 µM (inactive).

With `CCCn1nc(C(=O)Nc2cc(S(=O)(=O)Nc3ccc(OC)cc3)ccc2O)c2ccccc2c1=O` the IC50 [4] was > 47.1 µM (inactive) and the EC50 [5] was > 53 µM (inactive).

With `Cc1nnc(NC(=O)CSc2nnc(Cc3ccccc3)n2-c2ccccc2)s1` the IC50 [4] was > 47.1 µM (inactive) and the EC50 [5] was > 53 µM (inactive).

With `Cc1ccc(OC(=O)CCC(=O)Oc2ccc(C)cc2C)c(C)c1` the AC50 [8] was 3.51 µM (active).

With `O=C(CC(NC(=O)OCc1ccccc1)C(=O)OCc1ccccc1)OCc1ccccc1` (stereo unspecified) the IC50 [4] was > 47.1 µM (inactive) and the EC50 [5] was > 53 µM (inactive).

For `Cc1ccc(C)c(S(=O)(=O)Nc2ccc(-n3cnnn3)cc2)c1`, the AC50 [8] was > 70 µM (inactive).

For `COc1ccccc1NC(=O)c1c(/N=C/c2c(O)ccc3ccccc23)cnn1C`, the IC50 [1] was > 20 µM (inactive).

With `COc1cc(/C=N/c2c(C)cc(C)cc2C)ccc1OC(C)=O` the IC50 [4] was > 47.1 µM (inactive) and the EC50 [5] was > 53 µM (inactive).

In the case of `Oc1ccc(N/C(S)=N/c2ccccc2)cc1`, the IC50 [6] is reported as 32.9 µM (active), the IC50 (Large T antigen) is reported as 5.61 µM (active) and 8.33 µM (active) and the EC50 [9] is reported as > 260 µM (inactive).

With `COc1cc(/C=N/NC(=O)C(C)n2nnc3ccccc32)ccc1O` (stereo unspecified) the IC50 [6] was 25.5 µM (active), the IC50 (Large T antigen) was 19.8 µM (active) and the AC50 [7] was 0.332 µM (active).

With `Sc1nnc(-c2[nH]nc3c2CCC3)n1/N=C/C=C/c1ccco1` the IC50 (Large T antigen) was 18.1 µM (active).

In the case of `OC1=C(/C=N/c2ccc(O)cc2)CCCC1`, the IC50 [6] is reported as 12.5 µM (active) and the IC50 (Large T antigen) is reported as 6.66 µM (active).

For `Cc1ccc2nc(N=C(N)NC(=O)NC3CCCCC3)nc(C)c2c1`, the EC50 (Streptokinase A) was 52.7 µM (active) and the IC50 [1] was > 20 µM (inactive).
